What was measured:
[1] = tested on: HAP1 MTAP-deleted cell line; assay: SDMA in-cell western assay, HAP1 MTAP-deleted; assay type: cell-based; conditions: for IC50: Homo sapiens, HAP1, SDMA in-cell western, HAP1 MTAP-deleted; for MTAP intact/deleted ratio: IC50 ratio HAP1 MTAP-intact / HAP1 MTAP-deleted, SDMA in-cell western
Method in brief: (§1)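 Isogenic HAP1 pair: the MTAP-intact line expresses endogenous MTAP, and the deleted line is MTAP-null. Symmetric dimethylarginine was detected by in-cell western and IC50 values derived for each line.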

[2] = molecular target: T1, PRMT5 (Homo sapiens, UniProt O14744); assay: PRMT5 biochemical IC50 assay with no cofactor; conditions: PRMT5, no cofactor; read-out: No Cofactor/rel IC50
T1 construct: purchased Viva (custom protein)
T1 sequence (O14744 whole entry): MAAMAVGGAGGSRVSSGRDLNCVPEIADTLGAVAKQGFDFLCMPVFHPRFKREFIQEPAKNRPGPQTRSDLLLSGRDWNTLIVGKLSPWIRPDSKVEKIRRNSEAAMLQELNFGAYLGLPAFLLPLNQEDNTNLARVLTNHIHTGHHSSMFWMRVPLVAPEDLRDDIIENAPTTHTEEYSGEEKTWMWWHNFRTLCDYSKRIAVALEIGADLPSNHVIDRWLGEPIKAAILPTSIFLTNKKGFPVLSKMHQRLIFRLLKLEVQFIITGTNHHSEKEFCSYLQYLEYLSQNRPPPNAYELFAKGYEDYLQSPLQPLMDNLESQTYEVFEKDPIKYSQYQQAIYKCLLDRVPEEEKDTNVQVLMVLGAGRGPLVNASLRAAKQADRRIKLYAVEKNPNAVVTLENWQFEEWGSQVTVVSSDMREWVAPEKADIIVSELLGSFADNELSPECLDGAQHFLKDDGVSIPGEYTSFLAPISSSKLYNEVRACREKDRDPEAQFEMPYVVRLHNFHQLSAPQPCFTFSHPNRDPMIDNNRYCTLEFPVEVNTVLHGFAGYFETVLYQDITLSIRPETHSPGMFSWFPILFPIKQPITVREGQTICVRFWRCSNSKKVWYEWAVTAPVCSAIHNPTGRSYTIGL
T1 sequence (Q9BQA1 whole entry partner): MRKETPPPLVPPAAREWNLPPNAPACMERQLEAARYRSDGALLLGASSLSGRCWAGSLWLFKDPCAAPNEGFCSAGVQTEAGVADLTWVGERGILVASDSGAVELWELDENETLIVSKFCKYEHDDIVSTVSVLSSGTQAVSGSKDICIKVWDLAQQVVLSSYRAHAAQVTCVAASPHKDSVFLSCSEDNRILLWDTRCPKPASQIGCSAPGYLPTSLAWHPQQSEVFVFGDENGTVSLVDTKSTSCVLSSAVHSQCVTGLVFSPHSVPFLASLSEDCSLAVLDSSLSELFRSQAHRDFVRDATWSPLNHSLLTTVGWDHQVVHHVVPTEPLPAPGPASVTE
Text: Table 1 indicates IC50 values (μM) against PRMT5 for exemplary compounds in the presence of SAM as cofactor, with no cofactor, and with MTA as cofactor, respectively (columns 4-6). […] Ki values can be calculated from the IC50 values as described in the Examples section. As detailed in the Examples section, for the assay performed in the presence of SAM, IC50=Ki×1.5 (Ki=IC50/1.5).

[3] = molecular target: T1, PRMT5; assay: PRMT5 biochemical IC50 assay with SAM as cofactor; conditions: PRMT5, SAM as cofactor; read-out: SAM IC50
[4] = molecular target: T1, PRMT5; assay: PRMT5 biochemical IC50 assay with MTA as cofactor; conditions: PRMT5, MTA as cofactor; read-out: MTA IC50
[5] = tested on: HAP1 MTAP-deleted cell line; assay: Viability assay, MTAP-deleted cell line; assay type: cell-based; conditions: Homo sapiens, read-out: HAP1 MTAP deleted viability
Text: Table 1 additionally indicates IC50 values in a viability assay for the MTAP-deleted cell line (column 10), indicating the effect of treatment with compound on cell survival.

[6] = tested on: HAP1 MTAP-intact cell line; assay: SDMA in-cell western assay, HAP1 MTAP-intact; assay type: cell-based; conditions: Homo sapiens, HAP1, SDMA in-cell western, HAP1 MTAP-intact; read-out: MTAP HAP1 intact IC50
Method in brief: as §1

[7] = read-out: HAP 1 MTAP deleted IC50
[8] = HAP1, viability IC50, MTAP-deleted cell line
[9] = read-out: HAP1 MTAP deleted IC50
[10] = HAP1, viability assay, HAP1 MTAP-deleted

| SMILES | IC50 [1, 7] [nM] | IC50 [2] [nM] | IC50 [3] [nM] | IC50 [4] [nM] | IC50 [6] [nM] | IC50 [1, 9] [nM] | MTAP intact/deleted ratio [1] | IC50 [5, 8] [µM] | IC50 [5, 10] [µM] |
| --- | --- | --- | --- | --- | --- | --- | --- | --- | --- |
| Cc1cc(NC(=O)C(=O)N2C[C@H](C)CC[C@H]2c2ccc(C(F)(F)F)c(Cl)c2)cnc1N (single isomer, unassigned) [Compound 689] | > 1000 | > 500 | > 500 | > 500 | > 1000 |  | C (an IC50 ratio of less than 3 fold) | > 10 |  |
| CCc1cc(NC(=O)C(=O)N2C[C@@H](C)CC[C@@H]2c2ccc3c(c2)CNC3=O)cnc1N (single isomer, unassigned) [Compound 696, N-(6-amino-5-ethylpyridin-3-yl)-2-(5-methyl-2-(1-oxoisoindolin-5-yl)piperidin-1-yl)-2-oxoacetamide] | < 100 | < 50 | 50 to 500 | < 50 | > 1000 |  | A (an IC50 ratio greater than or equal to 10 fold) | 1 to 10 |  |
| Cc1ncc(NC(=O)C(=O)N2C[C@H](C)CC[C@H]2c2ccc3c(c2)CCC(=O)N3)cc1C(F)(F)F (single isomer, unassigned) [Compound 697] | < 100 | < 50 | 50 to 500 | < 50 | > 1000 |  | A (an IC50 ratio greater than or equal to 10 fold) | < 1 |  |
| CCc1cc(NC(=O)C(=O)N2C[C@@H](C)CC[C@@H]2c2ccc3c(c2)C(=O)NC3)cnc1N (single isomer, unassigned) [Compound 700] | < 100 | < 50 | 50 to 500 | < 50 | > 1000 |  | A (an IC50 ratio greater than or equal to 10 fold) | < 1 |  |
| Cc1cc(NC(=O)C(=O)N2C[C@@H](C)CC[C@@H]2c2ccc(C(F)(F)F)c(Cl)c2)cnc1N (single isomer, unassigned) [Compound 703] | 100 to 1000 | 50 to 500 | 50 to 500 | < 50 | 100 to 1000 |  | C (an IC50 ratio of less than 3 fold) | 1 to 10 |  |
| Cc1cc(NC(=O)C(=O)N2C[C@@H](C)C(F)(F)C[C@@H]2c2ccc(F)c(F)c2)cnc1N (single isomer, unassigned) [Compound 705] |  | < 50 | 50 to 500 | < 50 | 100 to 1000 | < 100 | B (an IC50 ratio greater than or equal to 3 fold but lower than 10 fold) |  | < 1 |

Continued, in another order:

| IC50 [1, 7] [nM] | IC50 [2] [nM] | IC50 [3] [nM] | IC50 [4] [nM] | IC50 [6] [nM] | IC50 [1, 9] [nM] | SMILES | MTAP intact/deleted ratio [1] | IC50 [5, 8] [µM] | IC50 [5, 10] [µM] |
| --- | --- | --- | --- | --- | --- | --- | --- | --- | --- |
| < 100 | < 50 | 50 to 500 | < 50 | 100 to 1000 |  | Cc1nc2cc([C@@H]3CC[C@@H](C)CN3C(=O)C(=O)Nc3cncc(C(N)=O)c3)ccc2s1 (single isomer, unassigned) [Compound 693] | A (an IC50 ratio greater than or equal to 10 fold) | < 1 |  |
| > 1000 | > 500 | > 500 | > 500 | > 1000 |  | Cc1nc2cc([C@H]3CC[C@H](C)CN3C(=O)C(=O)Nc3cncc(C(N)=O)c3)ccc2s1 (single isomer, unassigned) [Compound 702] | B (an IC50 ratio greater than or equal to 3 fold but lower than 10 fold) | > 10 |  |
| > 1000 | 50 to 500 | > 500 | < 50 | > 1000 |  | CC(=O)Nc1ccc([C@@H]2CC[C@@H](C)CN2C(=O)C(=O)Nc2cncc(C(N)=O)c2)s1 (single isomer, unassigned) [Compound 704] | C (an IC50 ratio of less than 3 fold) | > 10 |  |
|  | > 500 | > 500 | > 500 | > 1000 | > 1000 | C[C@@H]1CN(C(=O)C(=O)Nc2cncc(C(N)=O)c2)[C@@H](c2ccc(F)c(F)c2)CC1(F)F (single isomer, unassigned) [Compound 706] | B (an IC50 ratio greater than or equal to 3 fold but lower than 10 fold) |  | > 10 |

Reference: patent US11999727B2 (Tango Therapeutics, Inc., priority 2020, dated 2024)
